According to paper PMC5823845 (Bioorganic & Medicinal Chemistry, 2018):
Entries after “also recorded” stand apart in the source; their conditions may differ.

Assays:
[1] = Stability and intrinsic clearance in cryopreserved hepatocytes; conditions: mouse
Description: (§1) Reactions were terminated by addition of 100 μL of acetonitrile containing carbamazepine as the analytical internal standard. Samples were centrifuged and the supernatant fractions analysed by LC-MS/MS. The instrument responses (peak heights) were referenced to the zero time-point samples (as 100%) in order to determine the percentage of compound remaining. Ln plots of the % remaining, for each compound, were used to determine the half-life for the hepatocyte incubations.

[2] = Plasma protein binding, equilibrium dialysis; assay type: in vitro ADME
Description: Equilibrium dialysis is used to determine the extent of binding of a compound to plasma proteins. A semi-permeable membrane separates a protein-containing compartment from a protein-free compartment. The system is allowed to equilibrate at 37 °C. The test compound present in each compartment is quantified by LC-MS/MS. The extent of binding is reported as a fraction unbound (fu) value which is calculated as detailed below;
fu = 1 – (PC - PF /PC). PC = Test compound concentration in protein-containing compartment. PF = Test compound concentration in the protein-free compartment.

[3] = Intrinsic clearance in liver microsomes; assay type: in vitro ADME; conditions: liver microsomes, 37 °C, NADPH, 45 min, mean of 5
Description: The reaction is terminated by the addition of methanol. Following centrifugation, the supernatant is analyzed on the LC-MS/MS. […] The data is the mean on 5 separate experiments.
The ln peak area ratio (compound peak area/internal standard peak area) is plotted against time and the gradient of the line determined.
(see Supplementary data file for details).

Solubility in water = assay type: physicochemical; conditions: as the sodium salt in water at 35 °C
[4] = C57 mice, n = 3
Description: Blood was centrifuged to yield plasma for quantification of parent compound using UPLC-MS/MS. […] Terminal blood samples (approximately 300 μL) were subsequently taken by cardiac puncture under CO2 terminal anaesthesia. Once collected, blood samples were transferred to tubes containing 28 μL of citrate as anti-coagulant and held on ice, for <30 minutes, before centrifugation to generate plasma. Plasma samples aliquots (50 μL) were treated with four volumes of acetonitrile, containing diclofenac as analytical internal standard. Precipitated proteins were removed by centrifugation and the supernatant was analysed by UPLC-MS/MS. Pharmacokinetic parameters were determined by non-compartmental analysis using the software package PK Solutions 2.0 from Summit Research Services.

in vivo = conditions: male, Beagle, dog, iv, 0.5 mg/kg
Description: intravenous (bolus) injection at a dose level of 0.2 mg/kg. […] Intravenous doses were administered by bolus injection into a cephalic vein at a dose volume of 1 mL/kg. Oral doses were administered by gastric intubation at a dose volume of 5 mL/kg. […] Pharmacokinetic parameters were calculated using the computer program Phoenix WinNonlin version 6.3 (Pharsight Corporation, USA).

mouse RAR alpha receptor = target: T1, mouse RAR alpha receptor (Mus musculus, UniProt P11416); conditions: relative to the amplitude of the normalizing ATRA output
T1 sequence (P11416 183-417 limits assumed): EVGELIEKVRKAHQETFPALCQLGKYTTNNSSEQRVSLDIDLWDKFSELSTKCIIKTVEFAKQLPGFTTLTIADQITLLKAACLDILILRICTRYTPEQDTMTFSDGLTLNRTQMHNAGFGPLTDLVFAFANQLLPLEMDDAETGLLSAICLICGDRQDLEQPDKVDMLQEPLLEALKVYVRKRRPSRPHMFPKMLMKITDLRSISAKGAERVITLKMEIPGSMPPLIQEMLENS

COS-7 cells = assay: Cytotoxicity assay (MTT) in COS-7 cells; assay type: cell-based; conditions: 50-fold multiple of EC50
Description: Cytotoxicity Assay: COS-7 cells were plated out on 96 well plates at a density of 8000 cells per well. […] After two days an MTT assay (Promega) was carried out according to the manufacturer’s instructions

[5] = tested on: panel of 120 other receptors, channels and enzymes; assay: CEREP selectivity screen, binding and enzyme assays; conditions: 10 μM
Description: The CEREP selectivity screen was performed on the following targets:
A1, A2A, A3, α1, α2, β1, β2, AT1, AT2, BZD central, BZD periph, BB, B2, CGRP, CB1, CCK1, CCK2, D1, D2S, D3, D4.4, D5, ETA, ETB, GABA, GAL1, GAL2, PDGF, CXCR2, CCR1, TNF- α, H1, H2, MC4, MT1, M1, M2, M3, M4, M5, NK1, NK2, NK3,Y1, Y2, NTS1(NT1), δ2, κ, µ, NOP(ORL1) , PAC1(PACAP), PPARγ, PCP, EP2, EP4, IP(PGI2,), P2X, P2Y,5-HT1A, 5-HT1B, 5-HT2A, 5-HT2B, 5-HT2C, 5-HT3, 5-HT5A, 5-HT6, 5-HT7, σ, sst, GR, ER, VPAC1(VIP1), V1a, Ca^2+ channel (L), KV channel, KV channel, SKCa channel, Na^+ channel, Cl^- channel, norepinephrine transporter. dopamine transporter, 5-HT transporter.
sPLA2, COX1, COX2, 5-lipoxygenase, 12-lipoxygenase, inducible NOS, PDE2A1, PDE3A, PDE4D2, PDE5, PDE6, ACE, ACE-2, BACE-2, ECE-1, elastase, caspase-3, caspase-8, cathepsin D, cathepsin L, neutral endopeptidase, MMP-1, MMP-3, MMP-9, tryptase, TACE, phosphatase 1B, phosphatase CDC25A, Scr kinase, acetylcholinesterase, MAO-A, MAO-B, CENP-E, Eg5, HDAC3, HDAC4, HMG-CoA reductase, HDAC11, surtuin-1, surtuin-2.

[6] = Stability and intrinsic clearance in cryopreserved hepatocytes; conditions: rat
Description: as §1

hERG channel = target: T2, hERG channel (Homo sapiens, UniProt Q12809); assay: hERG binding assay, displacement of [3H]-astemizole; conditions: up to 10 μM
T2 construct: host or cells: HEK293 cells expressing HERG (per the cited method)
T2 sequence (Q12809 whole entry): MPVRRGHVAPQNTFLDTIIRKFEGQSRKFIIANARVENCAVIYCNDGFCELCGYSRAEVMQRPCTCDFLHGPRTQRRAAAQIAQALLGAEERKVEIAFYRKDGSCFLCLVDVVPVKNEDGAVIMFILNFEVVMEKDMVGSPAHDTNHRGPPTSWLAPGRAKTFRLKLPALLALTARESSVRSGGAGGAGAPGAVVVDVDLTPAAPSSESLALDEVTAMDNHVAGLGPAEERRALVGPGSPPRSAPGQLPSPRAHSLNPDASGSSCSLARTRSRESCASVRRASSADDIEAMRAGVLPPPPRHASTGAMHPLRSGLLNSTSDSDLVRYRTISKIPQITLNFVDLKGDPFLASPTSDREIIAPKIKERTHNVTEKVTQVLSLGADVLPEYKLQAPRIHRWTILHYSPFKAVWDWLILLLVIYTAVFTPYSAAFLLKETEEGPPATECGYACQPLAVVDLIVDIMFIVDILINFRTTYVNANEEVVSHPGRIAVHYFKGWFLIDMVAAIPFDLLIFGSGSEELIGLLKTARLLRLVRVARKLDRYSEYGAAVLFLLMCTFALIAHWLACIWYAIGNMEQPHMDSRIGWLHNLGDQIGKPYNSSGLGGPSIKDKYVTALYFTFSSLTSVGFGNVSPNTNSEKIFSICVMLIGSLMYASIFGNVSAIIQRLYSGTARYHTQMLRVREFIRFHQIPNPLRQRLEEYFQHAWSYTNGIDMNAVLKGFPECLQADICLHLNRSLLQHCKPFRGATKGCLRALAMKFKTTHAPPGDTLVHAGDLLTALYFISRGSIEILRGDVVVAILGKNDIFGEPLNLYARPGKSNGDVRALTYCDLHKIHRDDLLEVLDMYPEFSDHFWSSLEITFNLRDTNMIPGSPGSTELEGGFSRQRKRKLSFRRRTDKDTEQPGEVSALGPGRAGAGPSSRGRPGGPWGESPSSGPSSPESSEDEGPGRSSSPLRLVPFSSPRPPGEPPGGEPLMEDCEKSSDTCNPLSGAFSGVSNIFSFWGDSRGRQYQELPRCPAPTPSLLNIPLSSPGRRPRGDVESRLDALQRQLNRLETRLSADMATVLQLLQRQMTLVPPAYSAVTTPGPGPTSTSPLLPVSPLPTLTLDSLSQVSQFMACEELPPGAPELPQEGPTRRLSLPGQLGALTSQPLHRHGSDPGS
Description: Interaction with the hERG channel was assessed by displacement of the radioligand [^3H]-astemizole as described by Chiu et al.^3

PK studies in rats = assay type: in vivo, Sprague-Dawley rats
Description: The Test Items were orally administered at a dose of 10 mg/kg and a dosing volume of 10 mL/kg. […] The Test Items were intravenously administered at a dose of 0.5 mg/kg and a dosing volume of 2 mL/kg. […] Whole blood concentrations of the Test Items were measured using LC-MS/MS and selected pharmacokinetic parameters calculated using Pharsight WinNonLin software. For furthers details see Supplementary data file.

HEPG2 cells = assay: High-content cell toxicity screen in HEPG2 cells; assay type: cell-based; conditions: concentrations up to 50 μM
Description: Effect on the cell or mitochondrial viability markers in HepG2 cells were tested for compounds up to 50 μM. HepG2 cells were plated on 96-well tissue culture treated black walled clear bottomed polystyrene plates at 0:3 _ 104 cells in 100_L per well. After 24 hr the cells were dosed with the test compound at a range of concentrations (see Assay Summary for details). At the end of the incubation period, the cells were loaded with the relevant dye/antibody for each cell health marker. The plates were then scanned using an automated fluorescent cellular imager, ArrayScanr VTI (Thermo Scientific Cellomics).

## CCOc1c(Cl)cc(C(=O)Nc2ccc(C(=O)O)c(C)c2)cc1OC(C)C [Compound 56, 4-(3-Chloro-4-ethoxy-5-isopropoxybenzamido)-2-methylbenzoic acid]
[1]
  half-life at 1 μM: 3.73 h
  half-life at 30 μM: > 5 h
  hepatocyte CLint at 1 μM: 12 µL/min/1e6 cells
  hepatocyte CLint at 30 μM: < 9 µL/min/1e6 cells
[2]; human
  fraction unbound: 0.07
[2]; mouse
  fraction unbound: 0.09
[3]; human microsomes
  microsomal CLint: 5.3 µL/min/mg
[3]; mouse microsomes
  microsomal CLint: 37.6 µL/min/mg
Solubility in water
  solubility: > 5000 µg/mL
[4]; 1 mg/kg iv and po, 1 mg/kg
  po F: 84%
[4]; 1 mg/kg iv
  iv t1/2: 1.9 h
[4]; 1 mg/kg po
  po Cmax: 2007 ng/mL
  po Tmax: 0.25 h
In vivo
  Vd: 0.66 L/kg
  clearance: 2.3 mL/min/kg
Mouse RAR alpha receptor
  RARα agonist type (partial / full agonist): full agonist
COS-7 cells
  cytotoxicity in COS-7 cells: no cytotoxicity; also recorded: not cytotoxic
[5]
  interactions with panel of 120 receptors, channels and enzymes: no significant interactions
[5]; two independent experiments
  inhibition (or stimulation), all panel targets: ≤ 25%
[6]
  half-life at 1 μM: 5.95 h
  half-life at 30 μM: > 7.5 h
  hepatocyte CLint at 1 μM: 4 µL/min/1e6 cells
  hepatocyte CLint at 30 μM: < 3 µL/min/1e6 cells
hERG channel
  binding to hERG: did not show any significant binding; also recorded: no inhibition
PK studies in rats; 10 mg/kg po, 8% Ethanol/92% PEG-400, n = 4
  rat pK AUC po: 70,765 ng·min mL^−1
PK studies in rats; iv 0.5 mg/kg, n = 4
  rat pK Cl: 7 mL/kg/min
PK studies in rats; male, Sprague-Dawley, whole blood, rat, 10 mg/kg po vs 0.5 mg/kg iv, n = 4, read-out: rat pK F%
  bioavailability: 40%
HEPG2 cells
  effect on cell or mitochondrial viability markers: no effect
